The term EC50 denotes the concentration at which the effect is half-maximal. The term IC50 denotes the point on the concentration scale where inhibition reaches its midpoint.

SMILES strings stand for the structures.

What all share (format): cell-based
One test concerns astrocytes. Description: Extracellular medium acidification (SNARF5) assay in astrocytes. To be noted: Mus musculus, Astrocyte, 1.5 h; astrocytes in vitro, 90 min stimulation, 10 nM to 30 μM. As to the method:
Secretion of lactate was measured indirectly through the acidification of extracellular medium using extracellular pH sensor SNARE-5F-(AND-6)-CAR (SNARF5) as described below.
Secretion of lactate was measured indirectly through the acidification of extracellular medium using extracellular pH sensor […] (SNARF5). After washing cells twice with stimulation medium (DMEM (D5030, Sigma), 1 mM […], and 5 mM Glucose, pH 7.4) at 37° C., cells were stimulated with compounds at a final concentration ranging from 10 nM to 30 μM in 50 μl per well of stimulation medium supplemented with 10 μM of SNARF5 (Life Technologies Corporation). Each compound was tested in two different plates for duplicates. After 90 min stimulation, fluorescence was read at exc. (excitation) 480 nm/emm. (emission) 580 nm and at exc 480 nm/emm. 630 nm. The ratio of fluorescence between 630 nm and 580 emission values, which is proportional to extracellular pH, was calculated. In each plate, 8 wells were used for negative controls (DMSO 0.1%) and 8 wells were used for positive controls (CCCP 2 μM in DMSO).
Table 3 below lists compounds that are active on the extracellular medium acidification (SNARF5) assay in astrocytes in vitro, which indicates their ability to produce lactate. ‘+’ indicates activity of compounds with EC50>5 μM; ‘++’ indicates activity of compounds with EC50<5 μM.
(§1) Primary cultures of cerebrocortical astrocytes were obtained from 1 to 2-day-old OF1 mouse pups (Charles River). Briefly, cortices were isolated and minced in small pieces under a dissecting microscope. The cells were incubated for 30 min at 37° C. in a solution containing 20 U/ml papain, 1 mM L-cysteine and 10 kU/ml DNase I. After dissociation, papain activity was stopped by the addition of fetal calf serum (FCS). Single-cell suspension was then obtained by mechanical dissociation, which consisted in cells trituration in a DMEM D7777 medium supplemented with 44 mm NaHCO3, 10 ml/L antibiotic/antimycotic solution and 10% FCS. The cells were seeded at an average density of ˜10′000 cells/cm^2 on poly-D-lysine coated 96- or 12-well culture plates, depending on their use, and grown in DMEM D7777 medium supplemented with 44 mm NaHCO3, 10 ml/L antibiotic/antimycotic solution and 10% FCS at 37° C. in a humidified atmosphere containing 5% CO2/95% air. Culture medium was renewed twice a week. Cells were stimulated and harvested between DIV14 and DIV17, when confluence and cell growth were optimal.

Another test concerns primary astrocytes. The test is described as follows: MTT mitochondrial activity assay. To be noted: Mus musculus, Astrocyte, 24 h treatment. As to the method:
as §1
To monitor mitochondrial activity in astrocytes, which is linked to the metabolic process of glycolysis and production of lactate, astrocytes in 96-well plates were stimulated for 24 h (37° C. 5% CO2/95% air) with the compounds of the invention ranging from 0.2 to 200 μM.
After stimulation, 5 mg/ml thiazol blue tetrazolium bromide (MTT) in D5030 medium complemented with 5 mM D-glucose and 44 mM sodium bicarbonate (pH 7.2) was added to each well, and cells were incubated for 4 h at 37° C. (5% CO2). The medium was then removed and the amount of reduced MTT, i.e. formazan, solubilized in DMSO (50 μl/well) was determined using a spectrophotometer (absorbance of 570 nm).
The mitochondrial activity in primary astrocytes treated with Compounds (1) to (4) at concentrations ranging from 1 nM to 200 μM. After 24 h, mitochondrial activity was monitored in MTT colorimetric assay as described above (FIG. 3).
On the technique in general: Tetrazolium assays rely on reduction of a dye to a coloured formazan, in cell work by metabolically active cells.

For a further test, the system named is primary mouse astrocytes. The test is described as follows: Extracellular lactate quantification (lactate release from primary astrocytes). To be noted: Astrocyte, 1.5 h; for EC50: primary mouse astrocytes, 90 min stimulation, read-out: EC50 of astrocyte-mediated lactate secretion; for Emax: Mus musculus, positive control CCCP 2 μM, 90 min, read-out: Maximal effect on lactate secretion compared to the effect of the positive control (100%). As to the method: as §1
Secretion of L-lactate was measured in the extracellular medium of 96-well plated astrocytes after 90 min stimulation (at 37° C., in 5% CO2/95% air conditions) with Vehicle (DMSO), the compounds of the invention (100 nM to 100 μM) or positive control. […] Stimulation medium was composed of D5030 medium complemented with 5 mM D-glucose and 44 mM sodium bicarbonate, pH 7.2. To quantify lactate concentrations in the extracellular medium, 200 μl of a 0.2M Glycine-semicarbazide buffer (pH 10) containing 3 mM NAD and 14 U/ml LDH was added to each well of a 96-well plate containing 30 μl aliquots of extracellular medium. Samples were incubated at 37° C. for 1 h. Fluorescence intensity (340 nm excitation/450 nm emission), which represents the amount of NADH produced, was measured, and lactate concentration values were determined relative to a standard curve of L-lactate concentrations.
The release of lactate from primary mouse astrocytes treated with compound (1) at 10 μM was quantified by (FIG. 1). Accumulation of lactate in the extracellular medium was measured over a period of 1.5 h. […] Maximal effects of the compounds were 38.6% (1), 38% (2), 31% (4) and 76% (3) when compared to the effect of the positive control (100%) for compounds (1) to (4), respectively.

Molecule `COc1cc2ccnc(Nc3ccc(OC(F)(F)F)c(F)c3)c2cc1OC` [Example 14, N-(3-fluoro-4-(trifluoromethoxy)phenyl)-6,7-dimethoxyisoquinolin-1-amine] had an EC50 with astrocytes of over 5 µM. As to `COC(=O)c1ccc2c(Nc3ccc(OC(F)(F)F)cc3)nccc2c1` [Example 29, methyl 1-((4-(trifluoromethoxy)phenyl)amino)isoquinoline-6-carboxylate], in the test with astrocytes, the concentration giving a half-maximal response (EC50) is under 5 µM. Still for that read-out and setting: as for `COc1cc2ccnc(Nc3cccc(OC(F)(F)F)c3)c2cc1OC` [Example 11, 6,7-dimethoxy-N-(3-(trifluoromethoxy)phenyl)isoquinolin-1-amine], the figure is under 5 µM; as for `COc1ccc(Nc2nccc3cc(OC)c(OC)cc23)cc1OC` [Example 5, N-(3,4-dimethoxyphenyl)-6,7-dimethoxyisoquinolin-1-amine], over 5 µM. Consider `COc1cc2ccnc(Nc3ccc(C)cc3)c2cc1OC` [Example 6, 6,7-dimethoxy-N-(p-tolyl)isoquinolin-1-amine], for which, in the test on astrocytes, the EC50 is over 5 µM. The same measure, in the same setting: next, `COc1ccc2c(Nc3ccc(OC(F)(F)F)cc3)ncc(Br)c2c1` [Example 25, 4-bromo-6-methoxy-N-(4-(trifluoromethoxy)phenyl)isoquinolin-1-amine]: over 5 µM; `COCCc1ccc(Nc2nccc3cc(OC)c(OC)cc23)cc1` [Example 20, 6,7-dimethoxy-N-(4-(2-methoxyethyl)phenyl)isoquinolin-1-amine]: under 5 µM. Still for that read-out and setting: as for `COc1cc2ccnc(Nc3cccc(OC(F)F)c3)c2cc1OC` [Example 16, N-(3-(difluoromethoxy)phenyl)-6,7-dimethoxyisoquinolin-1-amine], the figure is under 5 µM.

As to `COc1ccc2c(Nc3ccc(OC(F)(F)F)cc3)ncc(C)c2c1` [Example 24, 6-methoxy-4-methyl-N-(4-(trifluoromethoxy)phenyl)isoquinolin-1-amine], the 50% effective concentration (EC50) in the test with astrocytes was over 5 µM. Same read-out and setting: next, `CN(C)c1ccc2c(Nc3ccc(OC(F)(F)F)cc3)nccc2c1` [Example 27, N^6,N^6-dimethyl-N^1-(4-(trifluoromethoxy)phenyl)isoquinoline-1,6-diamine]: under 5 µM. Turning to `COc1ccc(Nc2nccc3cc(OC)c(OC)cc23)cc1` [Example 7, 6,7-dimethoxy-N-(4-methoxyphenyl)isoquinolin-1-amine], in the test with astrocytes, the concentration giving a half-maximal response (EC50) is over 5 µM. Take `COc1cc2ccnc(Nc3ccc(C(F)(F)F)cc3)c2cc1OC` [Example 2, 6,7-dimethoxy-N-(4-(trifluoromethyl)phenyl)isoquinolin-1-amine]: in the test with astrocytes, the EC50 was over 5 µM. This molecule also came in with an IC50 in the test with primary astrocytes of 42.9 µM. For the same molecule, in the test on primary mouse astrocytes, the EC50 came to 10.1 µM and the Emax was found to be 38%. On to `COc1ccc2c(Nc3ccc(OC(F)(F)F)cc3)nccc2c1C` [Example 21, 6-methoxy-5-methyl-N-(4-(trifluoromethoxy)phenyl)isoquinolin-1-amine], for which the EC50 in the test on astrocytes was under 5 µM. The same measure, in the same setting: next, `COc1cc2ccnc(Nc3ccc(SC)cc3)c2cc1OC` [Example 18, 6,7-dimethoxy-N-(4-(methylthio)phenyl)isoquinolin-1-amine]: over 5 µM. For `FC(F)(F)Oc1ccc(Nc2nccc3ccccc23)cc1` [Example 3, N-(4-(trifluoromethoxy)phenyl)isoquinolin-1-amine], the results for the EC50 in the test with astrocytes and in the test with primary mouse astrocytes were over 5 µM and 10.9 µM, respectively. For the same molecule, the IC50 with primary astrocytes was 26.6 µM. Moreover, in the test with primary mouse astrocytes, the Emax came to 76%. In turn, `COCc1ccc(Nc2nccc3cc(OC)c(OC)cc23)cc1` [Example 9, 6,7-dimethoxy-N-(4-(methoxymethyl)phenyl)isoquinolin-1-amine] registered an EC50 in the test on astrocytes of over 5 µM.

Regarding `COc1ccc2c(Nc3ccc(OC(F)(F)F)cc3)nccc2c1` [Example 12, 6-methoxy-N-(4-(trifluoromethoxy)phenyl)isoquinolin-1-amine], the EC50 with astrocytes is over 5 µM. On the same count and under the same terms, next, `COc1cc2ccnc(Nc3ccc(OC(F)(F)F)c(Cl)c3)c2cc1OC` [Example 19, N-(3-chloro-4-(trifluoromethoxy)phenyl)-6,7-dimethoxyisoquinolin-1-amine]: under 5 µM; `COc1cc2ccnc(Nc3ccc(OC(F)(F)F)cc3F)c2cc1OC` [Example 10, N-(2-fluoro-4-(trifluoromethoxy)phenyl)-6,7-dimethoxyisoquinolin-1-amine]: over 5 µM.

Consider `COCCOc1ccc(Nc2nccc3cc(OC)c(OC)cc23)cc1` [Example 8, 6,7-dimethoxy-N-(4-(2-methoxyethoxy)phenyl)isoquinolin-1-amine], for which the half-maximal effective concentration (EC50) with astrocytes was over 5 µM. In the test on astrocytes, `CCc1ccc2c(Nc3ccc(OC(F)(F)F)cc3)nccc2c1` [Example 30, 6-ethyl-N-(4-(trifluoromethoxy)phenyl)isoquinolin-1-amine] came in with an EC50 of under 5 µM. Regarding `COc1cc2ccnc(Cc3ccc(OC(F)(F)F)cc3)c2cc1OC` [Example 4, 6,7-dimethoxy-1-(4-(trifluoromethoxy)benzyl)isoquinoline], the EC50 in the test on astrocytes was over 5 µM. Also, the concentration for half-maximal inhibition (IC50) with primary astrocytes is 5.5 µM. Further, in the test on primary mouse astrocytes, the EC50 is 10.5 µM and the Emax is 31%. Molecule `COc1cc2ccnc(Nc3cccc(N(C)C)c3)c2cc1OC` [Example 15, N^1-(6,7-dimethoxyisoquinolin-1-yl)-N^3,N^3-dimethylbenzene-1,3-diamine] came in with an EC50 in the test on astrocytes of over 5 µM. The same measure, in the same setting: next, `COc1cc2ccnc(Nc3ccc(C#N)cc3C(F)(F)F)c2cc1OC` [Example 17, 4-((6,7-dimethoxyisoquinolin-1-yl)amino)-3-(trifluoromethyl)benzo-nitrite]: over 5 µM. The molecule `FC(F)(F)Oc1ccc(Nc2nccc3cc(Cl)ccc23)cc1` [Example 13, 6-chloro-N-(4-(trifluoromethoxy)phenyl)isoquinolin-1-amine] had a concentration giving a half-maximal response (EC50) in the test on astrocytes of over 5 µM.

For the origin of these results see patent US11925632B2, “Isoquinoline derivatives for use in treating GLUT1 deficiency syndrome” (GLIAPHARM SA, priority 2019, dated 2024).
